Marks after values point to notes of the source that are not given here.
What was measured:
[1] = pKa measurements of individual IAJD molecules by titration; format: physicochemical; settings: ethanol saturated with NaCl, titrated with 0.1 M aqueous HCl, titration
Outline: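 Compound dissolved at 1.5 mg/mL in NaCl-saturated ethanol and titrated with 0.1 M HCl in 7.5 μL steps, pH read by electrode after each addition. pKa taken from the half-equivalence point.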

liver = assay: In vivo mRNA delivery, IVIS imaging of organs: liver; set-up: species or system mice; key to Organs with luminescence: liver: strong: Strong meant the luminescence intensity in that organ was relatively high, compared to other organs; weak: Weak meant the luminescence intensity in that organ was relatively low, compared to other organs; settings: for Organs with luminescence: liver (weak/strong): Table 14; for Organs with luminescence: liver: Table 17, mice, IVIS, 4-6 h after injection, intensity relative to other organs
Method: (§1) The exposure time was 1 min.
(§2) Tissue luminescence signal was measured on the IVIS imaging system using an exposure time of 60 seconds using medium binning (binning=8) to ensure that the signal obtained was within operative detection range. […] Bioluminescence imaging was performed as described above.
(§3) Tissue luminescence signal was measured on the IVIS imaging system using a certain exposure time (60, 30 or 15 seconds) and medium binning (binning=8) to ensure that the signal obtained was within operative detection range.

[2] = Dimensions (size, PDI) of DNPs co-assembled from IAJDs and Luc-mRNA by DLS; format: physicochemical
Outline: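 IAJDs (80 mg/mL ethanol stock) rapidly injected into Luc-mRNA (4.0 mg/mL stock) diluted in 10 mM acetate buffer pH 4.0, then vortexed 5 s. Size and polydispersity of resulting DNPs measured by DLS (633 nm laser, 175° detection) at 23 °C.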

lung = assay: In vivo mRNA delivery, IVIS imaging of organs: lung; set-up: species or system mice; key to Organs with luminescence: lung: strong: Strong meant the luminescence intensity in that organ was relatively high, compared to other organs; weak: Weak meant the luminescence intensity in that organ was relatively low, compared to other organs; settings: for Organs with luminescence: lung (weak/strong): Table 14; for Organs with luminescence: lung: Table 17, IVIS, 4-6 h after injection, intensity relative to other organs; for Organs with luminescence: lung / activity in lung (in words): mice; for activity in lung (in words): Luc-mRNA DNPs
Method: as §1, §2, §3

[3] = Stability of DNPs by DLS after storage at 5° C.; format: physicochemical; set-up: key: Excellent: the original sizes and distribution types remained almost the same after storage; Good: the original sizes and distribution types changed slightly (size difference was less than 100 nm) or the original size remained almost the same but the DLS curve showed more size distributions after storage
Method: (§4) The stability of the DNPs as assayed by DLS. All the samples are prepared in acetate buffer. The stabilities of the constructs were ranked: Excellent (in bold)—the original sizes and distribution remains almost the same after storage; Good—the original relatively big sizes became smaller or broad size distribution became narrower; Not stable—the original relatively big sizes or broad size distribution remained almost the similar level, or the original relatively small sizes became bigger or narrow size distribution became broader.

[4] = Stability of DNPs by DLS after storage at 5° C.; format: physicochemical; set-up: key to Original size distribution type (DLS curve) / Size distribution type (DLS curve): U: DLS curve showed unimodal size distribution; B: DLS curve showed bimodal size distribution; M: DLS curve showed multimodal size distribution; settings: for pH Sample: DNPs: IAJD 4.0 mg/mL + Luc-mRNA 0.1 mg/mL, injection in acetate buffer pH 4.00; for PDI / Size (d, nm) / Original size distribution type (DLS curve): IAJD 4.0 mg/mL + Luc-mRNA 0.1 mg/mL; for PDI / Size (d, nm): acetate buffer; for Original size distribution type (DLS curve): before storage, acetate buffer pH 4.00
Method: as §4

[5] = Table 15, individual IAJD molecule
[6] = Table 12, DNPs, IAJD 4 mg/mL + Luc-mRNA 0.10 mg/mL, acetate buffer 10 mM pH 4.0
[7] = Table 13, DNPs, IAJD 4 mg/mL + Luc-mRNA 0.10 mg/mL, acetate buffer pH 4.0
[8] = Table 14, DNPs, IAJD 4 mg/mL + Luc-mRNA 0.10 mg/mL, acetate buffer pH 4.0
[9] = Table 17, DNPs used in vivo, IAJD 4 mg/mL, Luc-mRNA 0.10 mg/mL, acetate pH 4.0
[10] = Table 16, DNPs from IAJD 4 mg/mL and Luc-mRNA 0.10 mg/mL by injection in acetate buffer (10 mM, pH 4.0)

| SMILES | pKa [1, 5] | PDI [2, 6] | Size (d, nm) [2, 6] [nm] | PDI [2, 7] | Size (d, nm) [2, 7] [nm] | PDI [2, 8] | Size (d, nm) [2, 8] [nm] | PDI [2, 9] | Size (d, nm) [2, 9] [nm] | pKa ([1]; individual IAJD molecules) | pH Sample [4] | Original size distribution type (DLS curve) [4] | PDI [2, 10] | Size (d, nm) [2, 10] [nm] | Organs with luminescence: liver (weak/strong) (liver; imaging 6 h after injection) | Organs with luminescence: lung (weak/strong) (lung; imaging 6 h after injection) | Organs with luminescence: lung (lung) | other results |
| --- | --- | --- | --- | --- | --- | --- | --- | --- | --- | --- | --- | --- | --- | --- | --- | --- | --- | --- |
| CCCCC(CC)COC(=O)CCCCOc1cc(COC(=O)CCCN2CCN(CCO)CC2)cc(OCCCCC(=O)OCC(CC)CCCC)c1 (stereo not drawn) [IAJD 95] | 6.33 | 0.352 | 105 | 0.352 | 105 | 0.352 | 105 |  |  |  |  |  |  |  | liver (weak), | Lung (weak), |  |  |
| CCCCC(CC)COc1cc(COC(=O)CCCN2CCN(C)CC2)cc(OCC(CC)CCCC)c1OCC(CC)CCCC (stereo not drawn) [IAJD 96, 3,4,5-Tris((2-ethylhexyl)oxy)benzyl 4-(4-methylpiperazin-1-yl)butanoate] | 6.32 | 0.402 | 139 | 0.402 | 139 | 0.402 | 139 |  |  |  |  |  |  |  |  |  |  | Organs with luminescence: liver (weak/strong) (liver; imaging 5 h after injection): liver (weak),; Organs with luminescence: lung (weak/strong) (lung; imaging 5 h after injection): Lung (weak), |
| CCCCC(CC)COc1cc(COC(=O)CCCN2CCN(CCO)CC2)cc(OCC(CC)CCCC)c1OCC(CC)CCCC (stereo not drawn) [IAJD 97, 3,4,5-Tris((2-ethylhexyl)oxy)benzyl 4-(4-(2-hydroxyethyl)piperazin-1-yl)butanoate] | 6.46 | 0.482 | 204 | 0.482 | 204 | 0.482 | 204 |  |  |  |  |  |  |  |  |  |  | Organs with luminescence: liver (weak/strong) (liver; imaging 5 h after injection): liver (weak),; Organs with luminescence: lung (weak/strong) (lung; imaging 5 h after injection): Lung (weak), |
| CCCCCCCCCCCCCCCCCCOc1cc(COC(=O)CCCN2CCN(C)CC2)cc(OCCCCCCCCCCCCCCCCCC)c1 [IAJD 98, 3,5-Bis(octadecyloxy)benzyl 4-(4-methylpiperazin-1-yl)butanoate] | 6.25 | 0.221 | 187 | 0.221 | 187 | 0.221 | 187 |  |  |  |  |  |  |  | liver (weak), | Lung (weak), |  |  |
| CCCCCCCCCCCCCCCCCCOc1cc(COC(=O)CCCN2CCN(CCO)CC2)cc(OCCCCCCCCCCCCCCCCCC)c1 [IAJD 99, 3,5-Bis(octadecyloxy)benzyl 4-(4-(2-hydroxyethyl)piperazin-1-yl)butanoate] | 6.31 | 0.571 | 277 | 0.571 | 277 | 0.571 | 277 |  |  |  |  |  |  |  | liver (weak), | Lung (weak), |  |  |
| CCCCCCCCCCCCCCOc1cc(COC(=O)CCCN2CCN(C)CC2)cc(OCCCCCCCCCCC)c1 [IAJD 105, 3-(Tetradecyloxy)-5-(undecyloxy)benzyl 4-(4-methylpiperazin-1-yl)butanoate] | 6.5 | 0.294 | 94 | 0.294 | 94 | 0.294 | 94 | 0.294 | 94 |  |  |  |  |  | liver (strong), | Lung (weak), | Lung (weak), | Organs with luminescence: liver (liver): liver (strong), |
| CCCCCCCCCCCCCCCCOc1cc(COC(=O)CCCN2CCN(C)CC2)cc(OCCCCCCCCCCCC)c1 [IAJD 106, 3-(Dodecyloxy)-5-(hexadecyloxy)benzyl 4-(4-methylpiperazin-1-yl)butanoate] | 6.38 | 0.275 | 105 | 0.275 | 105 | 0.275 | 105 | 0.275 | 105 |  |  |  |  |  | liver (weak), | Lung (weak), | Lung (weak), | Organs with luminescence: liver (liver): liver (weak), |
| CCCCCCCCCCCCCCCCCCOc1cc(COC(=O)CCCN2CCN(C)CC2)cc(OCCCCCCCCCCCC)c1 [IAJD 107, 3-(Dodecyloxy)-5-(octadecyloxy)benzyl 4-(4-methylpiperazin-1-yl)butanoate] | 6.42 | 0.279 | 146 | 0.279 | 146 | 0.279 | 146 | 0.279 | 146 |  |  |  |  |  | liver (weak), | Lung (weak), | Lung (weak), | Organs with luminescence: liver (liver): liver (weak), |

Continued, in another order:

| pKa [1, 5] | PDI [2, 6] | Size (d, nm) [2, 6] [nm] | PDI [2, 7] | Size (d, nm) [2, 7] [nm] | PDI [2, 8] | Size (d, nm) [2, 8] [nm] | PDI [2, 9] | Size (d, nm) [2, 9] [nm] | pKa ([1]; individual IAJD molecules) | pH Sample [4] | Original size distribution type (DLS curve) [4] | PDI [2, 10] | Size (d, nm) [2, 10] [nm] | SMILES | Organs with luminescence: liver (weak/strong) (liver; imaging 6 h after injection) | Organs with luminescence: lung (weak/strong) (lung; imaging 6 h after injection) | Organs with luminescence: lung (lung) | other results |
| --- | --- | --- | --- | --- | --- | --- | --- | --- | --- | --- | --- | --- | --- | --- | --- | --- | --- | --- |
|  |  |  |  |  |  |  | 0.274 | 111 | 7.64 | 4.91 | (U) | 0.274 | 111 | CCCCCCCCCCCCOc1cc(COC(=O)c2cc(OCCOCCOCCCC(=O)CCCN3CCCCC3)c(OCCOCCOCCOCc3ccccc3)c(OCCOCCOCCOC(=O)CCCN3CCCCC3)c2)cc(OCCCCCCCCCCCC)c1 [IAJD 110] |  |  | Lung (strong) | Ranking of stability ([3]; after 75 days at 5° C.): Excellent; Size distribution type (DLS curve) ([4]; after 75 days at 5° C.): (U); PDI ([4]; after 75 days at 5° C.): 0.222; Size (d, nm) ([4]; after 75 days at 5° C.): 103 nm; activity in lung (in words) (lung): very high activity to lung |
|  |  |  |  |  |  |  | 0.232 | 99 | 7.58 | 4.84 | (U) | 0.232 | 99 | CCCCCCCCCCCOc1cc(COC(=O)c2cc(OCCOCCOCCCC(=O)CCCN3CCCCC3)c(OCCOCCOCCOCc3ccccc3)c(OCCOCCOCCOC(=O)CCCN3CCCCC3)c2)cc(OCCCCCCCCCCC)c1 [IAJD 111] |  |  | Lung (strong), | Ranking of stability ([3]; after 75 days at 5° C.): Excellent; Size distribution type (DLS curve) ([4]; after 75 days at 5° C.): (U); PDI ([4]; after 75 days at 5° C.): 0.227; Size (d, nm) ([4]; after 75 days at 5° C.): 96 nm; activity in lung (in words) (lung): very high activity to lung |
|  |  |  |  |  |  |  | 0.511 | 181 | 6.52 | 4.48 | (B)^b | 0.511 | 181 | CCCCCCCCCCCOc1cc(COC(=O)CCCN2CCN(CCO)CC2)cc(OCCCCCCCC)c1 [IAJD 113, 3-(Octyloxy)-5-(undecyloxy)benzyl 4-(4-(2-hydroxyethyl)piperazin-1-yl)butanoate] |  |  |  | Ranking of stability ([3]; after 70 days at 5° C.): Excellent; Size distribution type (DLS curve) ([4]; after 70 days at 5° C.): (B); PDI ([4]; after 70 days at 5° C.): 0.365; Size (d, nm) ([4]; after 70 days at 5° C.): 184 nm |
|  |  |  |  |  |  |  | 0.474 | 212 | 6.37 | 4.40 | (B) | 0.474 | 212 | CCCCCCCCCCCCCCCCOc1cc(COC(=O)CCCN2CCN(CCO)CC2)cc(OCCCCCCCCCCC)c1 [IAJD 120, 3-(Hexadecyloxy)-5-(undecyloxy)benzyl 4-(4-(2-hydroxyethyl)piperazin-1-yl)butanoate] |  |  |  | Ranking of stability ([3]; after 70 days at 5° C.): Excellent; Size distribution type (DLS curve) ([4]; after 70 days at 5° C.): (B); PDI ([4]; after 70 days at 5° C.): 0.289; Size (d, nm) ([4]; after 70 days at 5° C.): 177 nm |
